Source: the supplement of paper PMC3937590

Legend:
Test in all cases: -log10 GI50 (growth inhibition 50%) (-log10(M)); higher = more potent growth inhibition
HCC1187 = tested on: HCC1187
Method in brief: (§1)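 Breast cancer cell lines were exposed to each compound for 72 hours at nine doses in 1:5 serial dilution, in triplicate, with a luminescence read-out against a time-zero plate. A Gompertz curve was fitted to the dose-response data by nonlinear least squares. The value is minus log10 of GI50, the molar concentration giving the set level of growth inhibition. Values equal to the top dose carry a < qualifier.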

SKBR3 = tested on: SKBR3
Method in brief: as §1

T47D = tested on: T47D
Method in brief: as §1

ZR751 = tested on: ZR751
Method in brief: as §1

HCC38 = tested on: HCC38
Method in brief: as §1

MDAMB175VII = tested on: MDAMB175VII
Method in brief: as §1

BT483 = tested on: BT483
Method in brief: as §1

MDAMB415 = tested on: MDAMB415
Method in brief: as §1

600MPE = tested on: 600MPE
Method in brief: as §1

BT474 = tested on: BT474
Method in brief: as §1

HCC1806 = tested on: HCC1806
Method in brief: as §1

MCF7 = tested on: MCF7
Method in brief: as §1

AU565 = tested on: AU565
Method in brief: as §1

CAMA1 = tested on: CAMA1
Method in brief: as §1

HCC1143 = tested on: HCC1143
Method in brief: as §1

SUM229PE = tested on: SUM229PE
Method in brief: as §1

MDAMB453 = tested on: MDAMB453
Method in brief: as §1

SUM159PT = tested on: SUM159PT
Method in brief: as §1

HS578T = tested on: HS578T
Method in brief: as §1

| -log10 GI50 (HCC1187) | -log10 GI50 (SKBR3) | -log10 GI50 (T47D) | -log10 GI50 (HCC38) | -log10 GI50 (MDAMB175VII) | -log10 GI50 (BT483) | -log10 GI50 (MDAMB415) | -log10 GI50 (BT474) | -log10 GI50 (HCC1806) | -log10 GI50 (MCF7) | -log10 GI50 (HCC1143) | -log10 GI50 (MDAMB453) | SMILES | -log10 GI50 (ZR751) | -log10 GI50 (600MPE) | -log10 GI50 (AU565) | -log10 GI50 (CAMA1) | -log10 GI50 (SUM229PE) | -log10 GI50 (SUM159PT) | -log10 GI50 (HS578T) |
| --- | --- | --- | --- | --- | --- | --- | --- | --- | --- | --- | --- | --- | --- | --- | --- | --- | --- | --- | --- |
| 4.66 | 5 | 4.02 | 4.76 | 4.44 | 5.82 | 3.79 | 3.97 | 4.81 | 3.64 | 3.88 | 4.27 | O=C(O)C1(C(=O)O)CCC1.[NH2-].[NH2-].[Pt+2] [Carboplatin] | 4.1 | 3.82 | 4.95 | 3.72 | 4.27 | 4.55 | 4.1 |
| 5.11 | 4.51 | 4.82 | 5.03 | 4.28 | – | 4.58 | 4.79 | 4.81 | 4.63 | 4.87 | 4.91 | NS(=O)(=O)c1ccc(Nc2nc(OCC3CCCCC3)c3[nH]cnc3n2)cc1 [NU6102] | 4.82 | – | 4.64 | 4.79 | 5.1 | 4.9 | 4.69 |
| 6.84 | 6.82 | 6.95 | 6.11 | 6.33 | 6.8 | 6.26 | 6.8 | 5.82 | 5.56 | 6.24 | 6.52 | O=C1NC(=O)/C(=C/c2ccc3nccc(-c4ccncc4)c3c2)S1 | 5.99 | 6.31 | 6.32 | 5.77 | 6.26 | 6.72 | 5.74 |
| 4.53 | 5.56 | 4.8 | 4.75 | 6.55 | 5.21 | 5.09 | 6.14 | 5.31 | < 4.48 | 4.93 | 5.13 | COc1cc2ncnc(Nc3ccc(F)c(Cl)c3)c2cc1OCCCN1CCOCC1 [Gefitinib] | < 4.48 | 5.21 | 5.97 | – | 5.21 | 5.07 | 4.76 |
| < 3.78 | 5.4 | 4.74 | 3.9 | 6.08 | < 3.78 | < 3.78 | 6.17 | 4.63 | 4.05 | < 3.78 | < 3.78 | COc1cc2ncnc(Nc3cccc(Cl)c3)c2cc1OC [AG1478] | < 3.78 | 4.11 | 4.79 | 4.46 | < 3.78 | 4.76 | 4.06 |
| 7.95 | 5.29 | 5.36 | 6.53 | 5.07 | 5.35 | 5.76 | 5.2 | 5.16 | 5.06 | 5.52 | 5.54 | CCn1cc(-c2ccnc3[nH]c(-c4cccc(CN(C)C)c4)cc23)c(-c2ccc(NC(=O)N(C)C)cc2)n1 | 5.08 | 5.1 | 5.52 | 5.05 | 6.33 | 5.77 | 6.42 |
| 8.05 | 7.94 | 8.02 | 8.13 | 7.74 | 7 | 8.18 | 7.99 | 8.11 | 7.79 | 7.8 | 7.99 | CC(=O)O[C@H]1C(=O)[C@@]2(C)[C@H]([C@H](OC(=O)c3ccccc3)[C@]3(O)C[C@H](OC(=O)[C@H](O)[C@@H](NC(=O)c4ccccc4)c4ccccc4)C(C)=C1C3(C)C)[C@]1(OC(C)=O)CO[C@@H]1C[C@@H]2O [Paclitaxel] | 7.76 | 7.51 | 8.14 | 7.95 | 7.72 | 8.24 | 8.38 |
| 7.3 | 6.9 | 7.37 | 7.14 | 6.48 | 7 | 6.52 | 6.51 | 6.79 | 6.11 | 6.6 | 6.67 | COc1cccc2c1C(=O)c1c(O)c3c(c(O)c1C2=O)C[C@@](O)(C(=O)CO)C[C@@H]3O[C@H]1C[C@H](N)[C@H](O)[C@H](C)O1 [Doxorubicin] | 6.87 | 6.69 | 7.03 | 6.58 | 6.72 | 6.77 | 6.31 |
| < 4.78 | < 4.78 | < 4.78 | < 4.78 | 7.88 | < 4.78 | 6.19 | < 4.78 | 6.39 | < 4.78 | < 4.78 | 6.64 | CC(=O)Nc1cccc(-n2c(=O)n(C3CC3)c(=O)c3c(Nc4ccc(I)cc4F)n(C)c(=O)c(C)c32)c1 | < 4.78 | 8.17 | 5.01 | < 4.78 | 8.17 | 7.93 | 7.47 |
| 4.04 | 4.48 | – | 3.72 | 3.96 | 4.48 | 3.66 | 3.75 | 4.61 | 4.37 | 3.76 | 4.02 | O=c1[nH]cc(F)c(=O)[nH]1 [Fluorouracil] | 4.52 | 4.11 | 4.69 | 3.51 | 4.08 | 4.68 | 4.34 |
| 4.35 | 5.49 | 6.31 | 6.14 | 4.17 | 5.22 | 4.94 | 4.69 | 5.81 | 4.64 | 4.88 | 5.19 | CCc1c2c(nc3ccc(OC(=O)N4CCC(N5CCCCC5)CC4)cc13)-c1cc3c(c(=O)n1C2)COC(=O)[C@]3(O)CC [CPT-11] | 5.44 | 4.71 | 5.83 | 4.84 | 5.16 | 5.37 | 4.5 |
| 3.16 | 3.51 | 5.67 | 5.26 | 3.21 | 3.27 | 4.17 | 4.24 | 3.88 | 3.46 | 4.05 | 4.26 | CCNCCCNC/C=C\CNCCCNCC | 3.29 | 3.68 | 3.33 | 2.91 | 4.33 | 4.03 | 4.54 |
| 5.29 | 7.55 | 5.97 | 7.24 | 7.39 | 6.68 | 7.45 | 5.84 | 7.05 | 6.25 | 6.86 | 7.36 | C=CCNC1=C2C[C@@H](C)C[C@H](OC)[C@H](O)[C@@H](C)/C=C(\C)[C@H](OC(N)=O)[C@@H](OC)/C=C\C=C(/C)C(=O)NC(=CC1=O)C2=O [17-AAG] | 6.83 | 6.65 | 7.24 | 6.6 | 7.56 | 7.46 | 6.96 |
| 6.33 | – | – | 7.07 | 7.05 | 6.78 | 6.58 | 5.17 | 6.78 | 6.45 | 6.58 | 6.66 | COc1cccc2c1C(=O)c1c(O)c3c(c(O)c1C2=O)C[C@@](O)(C(=O)CO)C[C@@H]3O[C@H]1C[C@H](N)[C@@H](O)[C@H](C)O1 [Epirubicin] | 6.6 | – | 6.84 | – | 6.62 | 6.86 | 6.44 |
| 6.51 | 7.95 | – | 8.61 | 5.95 | 7.38 | 6.73 | 5.6 | 7.69 | 5.89 | 6.58 | 7.07 | CC[C@@]1(O)C(=O)OCc2c1cc1n(c2=O)Cc2cc3c(CN(C)C)c(O)ccc3nc2-1 [Topotecan] | 7.16 | – | 7.73 | 6.4 | 7.2 | 6.65 | 4.8 |
| 5.07 | 7.97 | 6.02 | 8.17 | 8.12 | – | 6.05 | 4.88 | 8.72 | 4.77 | 7.92 | – | Nc1ccn([C@@H]2O[C@H](CO)[C@@H](O)C2(F)F)c(=O)n1 [Gemcitabine] | 7.45 | 7.64 | 7.81 | 6.79 | 7.3 | 7.99 | 5.66 |
| 7.64 | 7.83 | 5.34 | 7.94 | 7.41 | 8.14 | 7.73 | 7.32 | 7.97 | 7.85 | 6.49 | 8.8 | CCC1=C[C@@H]2CN(C1)Cc1c([nH]c3ccccc13)[C@@](C(=O)OC)(c1cc3c(cc1OC)N(C)[C@H]1[C@@](O)(C(=O)OC)[C@H](OC(C)=O)[C@]4(CC)C=CCN5CC[C@]31[C@@H]54)C2 [Vinorelbine] | 7.37 | 5.97 | 8.24 | 7.88 | 8.68 | 7.91 | 7.99 |
| 4.36 | 4.37 | < 3.78 | 4.28 | < 3.78 | 5.47 | 4.47 | 5.62 | 4.31 | < 3.78 | 4.28 | 4.47 | CC/C(=C(\c1ccccc1)c1ccc(OCCN(C)C)cc1)c1ccccc1 [Tamoxifen] | < 3.78 | 4.35 | 4.05 | 4.46 | 5.62 | 3.93 | < 3.78 |
| 7.48 | 6.92 | 5.56 | – | 5.21 | 5.35 | 7.15 | 5.07 | 7.95 | 6.5 | 7.17 | 8.02 | C[C@@H](Oc1cc(-n2cnc3ccc(CN4CCN(C)CC4)cc32)sc1C(N)=O)c1ccccc1C(F)(F)F | 5.16 | 5.16 | 8.58 | 5.17 | 7.68 | 7.49 | 7.71 |
| 8.61 | 8 | 8.51 | 8.69 | 7.8 | 7.65 | 8.48 | 8.2 | 8.62 | 7.91 | 8.06 | 8.32 | CC(=O)O[C@@]12CO[C@@H]1C[C@H](O)[C@@]1(C)C(=O)[C@H](O)C3=C(C)[C@@H](OC(=O)[C@H](O)[C@@H](NC(=O)OC(C)(C)C)c4ccccc4)C[C@@](O)([C@@H](OC(=O)c4ccccc4)[C@H]21)C3(C)C [Docetaxel] | 7.74 | 7.61 | 8.3 | – | 7.94 | 8.77 | 8.76 |
| – | 6.84 | 5.92 | 6.25 | 5.1 | 5.55 | 8.12 | 7.52 | 4.61 | 6.46 | 5.83 | 7.59 | CO[C@H]1C[C@@H]2CC[C@@H](C)[C@@](O)(O2)C(=O)C(=O)N2CCCC[C@H]2C(=O)O[C@H]([C@H](C)C[C@@H]2CC[C@@H](OCCO)[C@H](OC)C2)CC(=O)[C@H](C)/C=C(\C)[C@@H](O)[C@@H](OC)C(=O)[C@H](C)C[C@H](C)/C=C/C=C/C=C/1C [Everolimus] | 7.55 | 4.7 | – | 8.15 | 4.75 | 6.36 | – |
| 7.52 | 7.34 | 7.29 | 7.32 | 6.76 | 6.44 | 7.08 | 5.46 | 7.34 | 5.74 | 6.98 | – | CC(C)Oc1ccc(C(=O)N[C@H](CNC(=O)CN(C)C)Cc2ccc(-c3cn4cccc([C@H](C)O)c4n3)cc2)cc1Cl | 7.09 | < 4.48 | 7.62 | 7.33 | 7.42 | 7.43 | 7.32 |
